Entries after “also recorded” stand apart in the source; their conditions may differ.
Tests used:
[1] = biological target: T1, calf thymus topoisomerase I (Bos taurus, UniProt F1MN93); experiment: Topoisomerase I-mediated DNA cleavage assay (calf thymus enzyme); type: biochemical; conditions: for Topo I-mediated DNA cleavage (REC, Relative Effective Concentration): concentration relative to Hoechst 33342 (arbitrarily 1) producing the same cleavage on plasmid DNA, calf thymus topoisomerase I
T1 construct: DNA topoisomerase I was purified from calf thymus gland as reported previously; from tissue; host or cells: calf thymus gland
T1 sequence (F1MN93 1-767): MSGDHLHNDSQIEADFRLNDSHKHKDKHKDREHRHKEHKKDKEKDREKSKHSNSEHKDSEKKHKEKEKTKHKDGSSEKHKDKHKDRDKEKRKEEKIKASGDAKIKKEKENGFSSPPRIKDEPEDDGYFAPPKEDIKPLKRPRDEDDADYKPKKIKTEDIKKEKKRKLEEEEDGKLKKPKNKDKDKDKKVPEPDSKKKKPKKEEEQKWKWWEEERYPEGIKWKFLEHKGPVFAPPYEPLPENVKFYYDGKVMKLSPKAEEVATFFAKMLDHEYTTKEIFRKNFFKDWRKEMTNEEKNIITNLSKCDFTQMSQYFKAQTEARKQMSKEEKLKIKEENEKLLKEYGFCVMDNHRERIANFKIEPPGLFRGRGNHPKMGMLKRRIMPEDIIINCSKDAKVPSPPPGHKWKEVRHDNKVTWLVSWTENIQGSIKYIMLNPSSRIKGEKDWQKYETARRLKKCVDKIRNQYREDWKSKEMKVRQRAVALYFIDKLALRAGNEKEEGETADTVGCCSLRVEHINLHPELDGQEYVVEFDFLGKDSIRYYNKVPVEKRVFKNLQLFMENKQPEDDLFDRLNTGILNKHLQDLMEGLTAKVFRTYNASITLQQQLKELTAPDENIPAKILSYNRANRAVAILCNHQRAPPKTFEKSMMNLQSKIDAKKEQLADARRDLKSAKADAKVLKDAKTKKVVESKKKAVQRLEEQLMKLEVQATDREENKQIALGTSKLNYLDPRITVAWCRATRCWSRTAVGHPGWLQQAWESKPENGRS
Text: A. Topoisomerase I-Mediated DNA Cleavage Assays
DNA topoisomerase I was purified from calf thymus gland as reported previously by B. D. Halligan et al., J. Biol. Chem., 260, 2475 (1985).
Plasmid YEpG was also purified by the alkali lysis method followed by phenol deproteination and CsCl/ethidium isopycnic centrifugation as described by T. Maniatis et al., Molecular Cloning, A Laboratory Manual, Cold Spring Harbor Labs, N.Y. (1982) at pages 149-185. The end-labeling of the plasmid was accomplished as previously described by L. F. Liu et al., J. Biol. Chem., 258, 15365 (1983). The cleavage assays were performed as previously reported by A. Y. Chen et al., Cancer Res., 53, 1332 (1993). Human topoisomerase I was isolated as a recombinant fusion protein using a T7 expression system.

[2] = tested on: human lymphoblast RPMI 8402; experiment: MTT cytotoxicity assay, RPMI 8402; type: cell-based
Method: The cytotoxicity was determined using the as MTT-microtiter plate tetrazolinium cytotoxicity assay (MTA) following the procedures of F. Denizot et al., J. Immunol. Methods, 89, 271 (1986); J. Carmichael et al., Cancer Res, 47, 936 (1987) and T. J. Mosmann et al., Immunol. Methods, 65, 55 (1983). The human lymphoblast RPMI 8402 and its camptothecin-resistant variant cell line, CPT-K5 were provided by Dr. Toshiwo Andoh (Aichi Cancer Center Research Institute, Nagoya, Japan). See, for example, T. Andoh et al., Adv. Pharmacol., 29B, 93 (1994). The cytotoxicity assay was performed using 96-well microtiter plates. Cells were grown in suspension at 37 ° C. in 5% CO2 and maintained by regular passage in RPMI medium supplemented with 10% heat inactivated fetal bovine serum, L-glutamine (2 mM), penicillin (100 U/ml), and streptomycin (0.1 mg/ml). For determination of IC50, cells were exposed continuously with varying concentrations of drug concentrations and MTT assays were performed at the end of the fourth day.

[3] = biological target: T2, Aspergillus topoisomerase I (Aspergillus nidulans, UniProt Q5BGS7); experiment: Topoisomerase I cleavage assay, Aspergillus enzyme; type: biochemical; conditions: DNA cleavage assay
T2 construct: about 105 kDa by phosphate transfer
T2 sequence (Q5BGS7 1-871): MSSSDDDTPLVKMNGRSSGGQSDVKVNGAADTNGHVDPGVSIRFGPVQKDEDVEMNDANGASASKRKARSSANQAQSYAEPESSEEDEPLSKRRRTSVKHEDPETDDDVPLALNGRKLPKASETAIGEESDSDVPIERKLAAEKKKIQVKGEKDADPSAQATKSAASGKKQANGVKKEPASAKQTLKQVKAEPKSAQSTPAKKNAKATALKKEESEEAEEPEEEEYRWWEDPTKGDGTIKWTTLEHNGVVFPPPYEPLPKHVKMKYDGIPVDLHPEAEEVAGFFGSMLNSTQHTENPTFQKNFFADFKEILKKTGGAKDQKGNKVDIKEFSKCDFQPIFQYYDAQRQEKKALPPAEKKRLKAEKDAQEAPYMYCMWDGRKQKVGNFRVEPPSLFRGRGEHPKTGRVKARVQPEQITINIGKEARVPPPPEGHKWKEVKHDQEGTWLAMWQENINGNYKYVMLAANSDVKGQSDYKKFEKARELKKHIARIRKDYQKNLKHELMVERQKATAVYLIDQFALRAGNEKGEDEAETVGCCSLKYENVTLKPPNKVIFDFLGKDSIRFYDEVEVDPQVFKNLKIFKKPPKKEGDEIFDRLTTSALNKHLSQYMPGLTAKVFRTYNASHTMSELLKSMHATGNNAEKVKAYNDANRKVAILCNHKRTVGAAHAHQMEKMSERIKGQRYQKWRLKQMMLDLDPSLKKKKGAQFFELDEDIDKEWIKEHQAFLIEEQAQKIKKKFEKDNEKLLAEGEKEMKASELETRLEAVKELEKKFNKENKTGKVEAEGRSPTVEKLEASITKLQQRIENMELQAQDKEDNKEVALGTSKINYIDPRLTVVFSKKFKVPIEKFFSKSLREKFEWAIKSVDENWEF
Method: Two liters of YG medium (0.5% yeast extract and 2% glucose) were inoculated with approximately 5×10^8 conidia/ml. After 16 hours of growth at 37° C., the mycelia were collected, washed with Buffer I (50 mM Tris-HCl, pH 7.7, 1 mM EDTA, 1 mM EGTA, 10% glycerol, 1 mM phenylmethylsulfonyl fluoride and 1 mM 2-mercaptoethanol), and quickly chilled in liquid nitrogen. The frozen mycelia (approximately 20 grams) were ground to powder and resuspended in 300 ml of Buffer I. The lysate was centrifuged at 10K rpm in a Sorval HB3 Rotor for 15 minutes to remove cell debris. The supernatant was made 6% in polyethylene glycol (v/v) and 1M NaCl. After one hour on ice with gentle stirring, the solution was centrifuged at 14K rpm in a Sorvall Rotor for 30 minutes to remove nucleic acids.
Subsequent steps in purification were the same as described previously for purification of recombinant human DNA topoisomerase I (B. Gatto et al., Cancer Res., 56, 2795 (1996)). Briefly, the supernatant was chromatographed directly onto a hydroxyapatite Bio-gel HTP (BioRad Laboratories, Richmond, Calif.) column. Fractions containing relaxation activity were pooled, diluted and then loaded onto a BioRex70 column (BioRad Laboratories, Richmond, Calif.). The column was developed with a linear gradient from 0.2 to 1M KCl. The peak fractions were pooled and dialyzed overnight at 4° C. against 30 mM potassium phosphate, 50% glycerol (v/v), 0.5 mM EDTA, and 1 mM DTT. Recombinant human topoisomerase I was purified from Escherichia coli BL21 (DE3) harboring PET1B as described previously (Gatto et al., Cancer Res., 56, 2795 (1996)).
DNA topoisomerase I cleavage assays were performed as described by Y.-H. Hsiang et al., J. Biol. Chem., 260, 14873 (1985). YEpG DNA was linearized with BamHI and then 3 '-end-labeled with Klenow polymerase and α[-^32 P]dCTP. Following phenol extraction and ethanol precipitation, the labeled DNA was resuspended in 10 mM Tris, pH 8.0, and 1 mM EDTA. The DNA cleavage assay was done in a reaction mixture (20 μl) containing 40 mM Tris-HCl, pH 7.8, 100 mM KCl, 10 mM MgCl2, 0.5 mM dithiothreitol, 0.5 mM EDTA, 30 μg/ml bovine serum albumin, 20 ng of labeled YEpG DNA, and […] of Aspergillus or human topoisomerase I diluted to various extents. Following incubation at 23° C. for 15 minutes, the reactions were terminated by the addition of SDS (final concentration 1%) and proteinase K (final concentration 200 μg/ml). Proteinase K treatment continued at 37° C. for another 1 hour. The terminated reactions were either alkali-denatured and then loaded (alkaline loading) or loaded directedly in neutral loading buffer (neutral loading) onto a 1% agarose gel in neutral TPE electrophoresis solution. Gel drying and autoradiography were performed as described by Hsiang et al., cited above.

[4] = biological target: T3, mammalian DNA topoisomerase I (Homo sapiens, UniProt P11387); conditions: cited from earlier work
T3 sequence (P11387 1-765): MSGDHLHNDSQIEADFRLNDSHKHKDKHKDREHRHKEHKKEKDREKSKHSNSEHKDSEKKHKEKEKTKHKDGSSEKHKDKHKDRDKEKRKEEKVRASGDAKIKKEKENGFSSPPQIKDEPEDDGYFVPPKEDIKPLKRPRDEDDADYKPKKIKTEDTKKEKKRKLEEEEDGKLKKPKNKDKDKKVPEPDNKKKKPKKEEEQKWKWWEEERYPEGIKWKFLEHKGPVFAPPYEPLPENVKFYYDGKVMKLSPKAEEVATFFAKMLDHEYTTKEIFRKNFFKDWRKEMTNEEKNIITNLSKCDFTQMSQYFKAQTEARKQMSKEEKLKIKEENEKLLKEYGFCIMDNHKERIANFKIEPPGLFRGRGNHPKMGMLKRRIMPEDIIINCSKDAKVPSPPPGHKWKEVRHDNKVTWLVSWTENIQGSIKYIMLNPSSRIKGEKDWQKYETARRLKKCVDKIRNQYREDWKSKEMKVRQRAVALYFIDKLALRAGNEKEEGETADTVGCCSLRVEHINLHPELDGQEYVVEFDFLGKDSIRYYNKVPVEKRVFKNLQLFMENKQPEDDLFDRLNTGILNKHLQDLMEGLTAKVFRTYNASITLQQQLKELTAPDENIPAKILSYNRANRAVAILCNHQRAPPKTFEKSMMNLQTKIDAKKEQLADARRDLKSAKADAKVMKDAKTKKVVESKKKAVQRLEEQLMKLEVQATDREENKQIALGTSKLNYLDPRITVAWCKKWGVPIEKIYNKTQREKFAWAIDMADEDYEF

[5] = tested on: yeast cells expressing human topoisomerase I; experiment: Yeast cytotoxicity assay, human topoisomerase I; type: cell-based, S. cerevisiae
Text: (§1) The topoisomerase I-specific in vivo cytotoxicity assay was adapted from A. M. Knab et al., J. Biol. Chem., 268, 22322 (1993). In this system, various topoisomerase I genes or cDNAs cloned into the single-copy yeast plasmid vector (YCpGAL1; Knab et al., cited above) are expressed under the control of the GAL1 promoter in the JN2-134 strain of S. cerevisiae (MAT, rad52::Leu2, trp1, ade2-1, his7, ura3-52, ise1, top1-1, and leu2; M. A. Bjornsti et al., Cancer Res., 49, 6318 (1989)). The topoisomerase I gene or cDNA constructs in the vector are, respectively, the wild-type yeast topoisomerase I gene (YCpGAL-ScTOP1; need cite (1989)), a nonfunctional topoisomerase I gene where the active site tyrosine-727 is mutated to phenylalanine (YCPGAL1-Sctop1Y727; A. M. Knab et al., J. Biol. Chem., 268, 22322 (1993)), and the wild-type human topoisomerase I cDNA (YCp-GAL-hTOP1; M. A. Bjornsti et al., Cancer Res., 49, 6318 (1989)).
(§2) To qualitatively test the cytotoxicity and the topoisomerase I specificity of the drugs, yeast cells containing the specified plasmid were grown in dropout medium supplemented with uracil, 2% galactose, and the drug being tested.

[6] = tested on: yeast cells expressing yeast topoisomerase I; experiment: Yeast cytotoxicity assay, yeast topoisomerase I; type: cell-based, S. cerevisiae
Text: as §1, §2

[7] = tested on: yeast cells expressing nonfunctional yeast topoisomerase I; experiment: Yeast cytotoxicity assay, nonfunctional yeast topoisomerase I; type: cell-based, S. cerevisiae
Text: as §1, §2

human topoisomerase I = biological target: T4, human topoisomerase I (Homo sapiens, UniProt P11387); conditions: cited from earlier work
T4 construct: made in house; host or cells: Escherichia coli BL21 (DE3) harboring PET1B
T4 sequence (P11387 1-765): T3 sequence (P11387 1-765)

With Brc1ccc2[nH]c(-c3ccc4[nH]c(-c5ccc6[nH]cnc6c5)nc4c3)nc2c1 [JSKIV-37, 5-Bromo-2-[2'-(benzimidazol-5"-yl)benzimidazol-5'-yl]-benzimidazole] the “Topo I-mediated DNA cleavage (REC, Relative Effective Concentration)” value [1] was 1 and the IC50 ([2]; Homo sapiens, RPMI 8402, 96 h, read-out: Cytotoxicity IC50 RPMI) was 1400 nM.
For O=[N+]([O-])c1ccc2nc(-c3ccc(O)cc3)[nH]c2c1 [QS/II/51], the “inhibition (poisoning) of Aspergillus topoisomerase I, in words” value [3] is given as “None of the mono-benzimidazoles, including QS/II/50, QS/II/51, QS/II/59A, an QS/II/9, exhibited any inhibitory effect” and the “inhibition (poisoning) of mammalian DNA topoisomerase I, previous studies” value [4] is given as “inhibitors (poisons)”.
For COc1cc2c[n+](C)c3c4cc5c(cc4ccc3c2cc1OC)OCO5 [nitidine], the “inhibition (poisoning) of Aspergillus topoisomerase I, in words” value [3] was “completely resistant; also recorded: did not inhibit Aspergillus topoisomerase I to any significant extent”, the “cytotoxicity to yeast cells expressing human topoisomerase I” value [5] was “highly cytotoxic” and the “cytotoxicity to yeast cells expressing functional yeast topoisomerase I” value [6] was “not cytotoxic”. The “cytotoxicity to yeast cells expressing nonfunctional yeast topoisomerase I” value [7] was “not cytotoxic” and the “inhibition of human topoisomerase I, in words (known / previously disclosed)” value (human topoisomerase I) was “highly potent inhibitors”.
In the case of CCCc1ccc2[nH]c(-c3ccc4[nH]c(-c5ccc6[nH]cnc6c5)nc4c3)nc2c1 [Compound 12, 5-Propyl-2-[2'-(benzimidazol-5"-yl)benzimidazol-5'-yl]benzimidazole], the “potency as topoisomerase I inhibitor compared with Hoechst 33342, in words” value [1] is reported as “much less active”, the “Topo I-mediated DNA cleavage (REC, Relative Effective Concentration)” value [1] is reported as 100 and the “cytotoxicity towards RPMI 8402, in words” value [2] is reported as “weak cytotoxicity”.

— patent US5770617A, “Terbenzimidazoles useful as antifungal agents” (Rutgers, The State University of New Jersey, priority 1997, dated 1998)
